Reference: patent US20050049242A1 (priority 2000, published 2005)

Tested on: HIVNL4-3 M184V
Assay type: cell-based, HIV-1
Conditions: Fa 0.2; NL4-3cloneM184V; combined with L-CCA
Protocol: (§1) For each of these HIV clones, the ED50 was determined for the anti-HIV compounds ZDV, DDC, DDI, the protease inhibitor (PI) Nelfinavir (provided by Agouron Pharmaceuticals, San Diego), and L-CCA.
(§2) Molecular clones of HIV included wild-type HIVNL4-3, HIVNL4-3 M184V, and HIVNL4-3 JF26/A7, All three clones were a generous gift from P. Krogstad (UCLA, Los Angeles, Calif.). Viruses were initially, transfected in adherent HeLa cells using Lipofectin®. After 48 hours, H9 cells were added. Following 24 hours of co-culture, non-adherent cells were removed and cultured. Cells were monitored by indirect immunofluorescence and RT release as described below until the culture was 100% infected by HIV-1. Supernatant fluids were collected and clarified of cells by low-speed centrifugation followed by filtration through 0.45 μm filters.
(§3) Anti-HIV activity of compounds was determined both alone and in combination using a cytopathicity based assay as described above. […] The fifty-percent effective dose (ED50) was calculated for triplicate infections. Mean ED50 (shown in FIG. 5) were calculated for each drug against each HIV variant from a minimum of three experiments performed in triplicate.
(§4) Experiments were designed at a fixed ratio of drugs; the ratio for each drug combination was determined based on the ED50 of each drug alone against each HIV variant. Combination indices were calculated on representative experiments performed in triplicate according to the following formula of Chou and Talalay: fa/fu=(D/Dm)^m
(§5) Where fa is the fraction affected by the dose, fu is the unaffected fraction, D is the dose of the drug, Dm is the median-effect dose determined to be the x-intercept of the median-effect plot, and m is the sigmoidicity of the dose-effect curve, determined by the slope of the median-effect plot. The median effect plot is based on the following equation: log(fa/fu)=^m log (D)−m log (Dm)

Row | Structure (SMILES) | concentration of the drug in the combination with L-CCA giving Fa [nM]
1 | Cc1c(O)cccc1C(=O)N[C@@H](CSc1ccccc1)[C@H](O)CN1C[C@H]2CCCC[C@H]2C[C@H]1C(=O)NC(C)(C)C [Nelfinavir] | 2.5

Same assay, conditions: Fa 0.4; NL4-3cloneM184V; combined with L-CCA

Row | Structure (SMILES) | concentration of the drug in the combination with L-CCA giving Fa [nM]
2 | Cc1c(O)cccc1C(=O)N[C@@H](CSc1ccccc1)[C@H](O)CN1C[C@H]2CCCC[C@H]2C[C@H]1C(=O)NC(C)(C)C [Nelfinavir] | 4.7

Same assay, conditions: Fa 0.6; NL4-3cloneM184V; combined with L-CCA

Row | Structure (SMILES) | concentration of the drug in the combination with L-CCA giving Fa [nM]
3 | Cc1c(O)cccc1C(=O)N[C@@H](CSc1ccccc1)[C@H](O)CN1C[C@H]2CCCC[C@H]2C[C@H]1C(=O)NC(C)(C)C [Nelfinavir] | 7.9

Same assay, conditions: Fa 0.8; NL4-3cloneM184V; combined with L-CCA

Row | Structure (SMILES) | concentration of the drug in the combination with L-CCA giving Fa [nM]
4 | Cc1c(O)cccc1C(=O)N[C@@H](CSc1ccccc1)[C@H](O)CN1C[C@H]2CCCC[C@H]2C[C@H]1C(=O)NC(C)(C)C [Nelfinavir] | 14.8

Same assay, conditions: Fa 0.9; NL4-3cloneM184V; combined with L-CCA

Row | Structure (SMILES) | concentration of the drug in the combination with L-CCA giving Fa [nM]
5 | Cc1c(O)cccc1C(=O)N[C@@H](CSc1ccccc1)[C@H](O)CN1C[C@H]2CCCC[C@H]2C[C@H]1C(=O)NC(C)(C)C [Nelfinavir] | 24.8

Same assay, conditions: clone with methionine to valine mutation in RT

Row | Structure (SMILES) | susceptibility of the clone to the drug alone
6 | OC[C@@H]1CC[C@H](n2cnc3c(O)ncnc32)O1 [DDI, 2′,3′-dideoxyinosine] | partial resistance

Tested on: HIVNL4-3 clone 7-1
Assay type: cell-based, HIV-1
Conditions: Fa 0.2; NL4-3clone7-1; combined with L-CCA

Row | Structure (SMILES) | concentration of the drug in the combination with L-CCA giving Fa [nM]
7 | Cc1c(O)cccc1C(=O)N[C@@H](CSc1ccccc1)[C@H](O)CN1C[C@H]2CCCC[C@H]2C[C@H]1C(=O)NC(C)(C)C [Nelfinavir] | 2.9

Same assay, conditions: Fa 0.4; NL4-3clone7-1; combined with L-CCA

Row | Structure (SMILES) | concentration of the drug in the combination with L-CCA giving Fa [nM]
8 | Cc1c(O)cccc1C(=O)N[C@@H](CSc1ccccc1)[C@H](O)CN1C[C@H]2CCCC[C@H]2C[C@H]1C(=O)NC(C)(C)C [Nelfinavir] | 4.9

Same assay, conditions: Fa 0.6; NL4-3clone7-1; combined with L-CCA

Row | Structure (SMILES) | concentration of the drug in the combination with L-CCA giving Fa [nM]
9 | Cc1c(O)cccc1C(=O)N[C@@H](CSc1ccccc1)[C@H](O)CN1C[C@H]2CCCC[C@H]2C[C@H]1C(=O)NC(C)(C)C [Nelfinavir] | 7.6

Same assay, conditions: Fa 0.8; NL4-3clone7-1; combined with L-CCA

Row | Structure (SMILES) | concentration of the drug in the combination with L-CCA giving Fa [nM]
10 | Cc1c(O)cccc1C(=O)N[C@@H](CSc1ccccc1)[C@H](O)CN1C[C@H]2CCCC[C@H]2C[C@H]1C(=O)NC(C)(C)C [Nelfinavir] | 13.1

Same assay, conditions: Fa 0.9; NL4-3clone7-1; combined with L-CCA

Row | Structure (SMILES) | concentration of the drug in the combination with L-CCA giving Fa [nM]
11 | Cc1c(O)cccc1C(=O)N[C@@H](CSc1ccccc1)[C@H](O)CN1C[C@H]2CCCC[C@H]2C[C@H]1C(=O)NC(C)(C)C [Nelfinavir] | 20.3

Tested on: HIVNL4-3 JF26/A7
Conditions: Fa 0.2; NL4-3cloneJF26/A7; combined with L-CCA
Protocol: as §1, §2, §3, §4, §5

Row | Structure (SMILES) | concentration of the drug in the combination with L-CCA giving Fa [nM]
12 | Cc1c(O)cccc1C(=O)N[C@@H](CSc1ccccc1)[C@H](O)CN1C[C@H]2CCCC[C@H]2C[C@H]1C(=O)NC(C)(C)C [Nelfinavir] | 4.6

Same assay, conditions: Fa 0.4; NL4-3cloneJF26/A7; combined with L-CCA

Row | Structure (SMILES) | concentration of the drug in the combination with L-CCA giving Fa [nM]
13 | Cc1c(O)cccc1C(=O)N[C@@H](CSc1ccccc1)[C@H](O)CN1C[C@H]2CCCC[C@H]2C[C@H]1C(=O)NC(C)(C)C [Nelfinavir] | 7.0

Same assay, conditions: Fa 0.6; NL4-3cloneJF26/A7; combined with L-CCA

Row | Structure (SMILES) | concentration of the drug in the combination with L-CCA giving Fa [nM]
14 | Cc1c(O)cccc1C(=O)N[C@@H](CSc1ccccc1)[C@H](O)CN1C[C@H]2CCCC[C@H]2C[C@H]1C(=O)NC(C)(C)C [Nelfinavir] | 10.0

Same assay, conditions: Fa 0.8; NL4-3cloneJF26/A7; combined with L-CCA

Row | Structure (SMILES) | concentration of the drug in the combination with L-CCA giving Fa [nM]
15 | Cc1c(O)cccc1C(=O)N[C@@H](CSc1ccccc1)[C@H](O)CN1C[C@H]2CCCC[C@H]2C[C@H]1C(=O)NC(C)(C)C [Nelfinavir] | 15.1

Same assay, conditions: Fa 0.9; NL4-3cloneJF26/A7; combined with L-CCA

Row | Structure (SMILES) | concentration of the drug in the combination with L-CCA giving Fa [nM]
16 | Cc1c(O)cccc1C(=O)N[C@@H](CSc1ccccc1)[C@H](O)CN1C[C@H]2CCCC[C@H]2C[C@H]1C(=O)NC(C)(C)C [Nelfinavir] | 21.3
